# Laboratory results published in patent US20230085307A1, “PYRIDAZINONE COMPOUND AND HERBICIDE” (NISSAN CHEMICAL CORPORATION, priority 2019, published 2023).
# Tests used:
# oval-leafed pondweed [1] = assay: Test Example 1: herbicidal activity, application before weed generation under submerged conditions (Table 16, symbol C); assay type: in vivo, oval-leafed pondweed (Monochoria vaginalis); conditions: amount of applied herbicide 320 g/ha
# In short: (§1)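 Emulsion formulation, water-diluted to set dose, was put onto the flooded surface (4 cm depth, alluvial soil) the same day weeds were sown and 2.5-leaf rice transplanted. After 3 weeks at 25-30 °C under glass, each species was rated 0 (≤5% kill) to 5 (≥90% kill).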
# lambsquarters [2] = assay: Test Example 4: herbicidal effect by soil treatment (Table 19, symbol O); assay type: in vivo, lambsquarters (Chenopodium album); conditions: amount of applied herbicide 320 g/ha
# In short: (§2)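 Scoring uses the grading scale of an earlier test, three weeks post-application. Treatment consists of spraying a diluted emulsion formulation across the surface of sterilized diluvial soil in which seeds are buried near 1.5 cm deep; boxes are kept in a greenhouse between 25° C. and 30° C.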
# rice flat sedge = assay: Test Example 3: herbicidal effect by foliage application, Wagner pot (Table 18, symbol E); assay type: in vivo, rice flat sedge (Cyperus iria); conditions: 320 g/ha
# In short: (§3)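 Plants were sown in alluvial soil held under 0.1–0.5 cm standing water and grown 14 days in a greenhouse at 25–30 °C. An emulsifiable formulation, water-diluted to the set dose, was then sprayed onto the foliage, and effects were scored three weeks later using previously defined criteria.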
# southern crabgrass [3] = assay: Test Example 4: herbicidal effect by soil treatment (Table 19, symbol F); assay type: in vivo, southern crabgrass (Digitaria ciliaris); conditions: amount of applied herbicide 320 g/ha
# In short: as §2
# velvetleaf [4] = assay: Test Example 5: herbicidal effect by foliage application, plastic box (Table 20, symbol M); assay type: in vivo, velvetleaf (Abutilon theophrasti); conditions: amount of applied herbicide 320 g/ha; foliage application after 14-day growth; evaluated three weeks after application
# In short: (§4)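 Post-emergence foliar test in sterilized diluvial soil. Compound applied as water-diluted emulsion at a predetermined rate to 14-day-old plants; evaluation at three weeks.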
# velvetleaf [5] = assay: Test Example 4: herbicidal effect by soil treatment (Table 19, symbol M); assay type: in vivo, velvetleaf (Abutilon theophrasti); conditions: amount of applied herbicide 320 g/ha
# In short: as §2
# lambsquarters [6] = assay: Test Example 5: herbicidal effect by foliage application, plastic box (Table 20, symbol O); assay type: in vivo, lambsquarters (Chenopodium album); conditions: amount of applied herbicide 320 g/ha; foliage application after 14-day growth; evaluated three weeks after application
# In short: as §4
# green foxtail [7] = assay: Test Example 4: herbicidal effect by soil treatment (Table 19, symbol G); assay type: in vivo, green foxtail (Setaria viridis); conditions: amount of applied herbicide 320 g/ha
# In short: as §2
# Italian ryegrass [8] = assay: Test Example 5: herbicidal effect by foliage application, plastic box (Table 20, symbol K); assay type: in vivo, Italian ryegrass (Lolium multiflorum); conditions: amount of applied herbicide 320 g/ha; foliage application after 14-day growth; evaluated three weeks after application
# In short: as §4
# Chinese sprangletop = assay: Test Example 3: herbicidal effect by foliage application, Wagner pot (Table 18, symbol D); assay type: in vivo, chinese sprangletop (Leptochloa chinensis); conditions: 320 g/ha
# In short: as §3
# persian speedwell [9] = assay: Test Example 5: herbicidal effect by foliage application, plastic box (Table 20, symbol R); assay type: in vivo, Persian speedwell (Veronica persica); conditions: amount of applied herbicide 320 g/ha; foliage application after 14-day growth; evaluated three weeks after application
# In short: as §4
# windgrass [10] = assay: Test Example 4: herbicidal effect by soil treatment (Table 19, symbol L); assay type: in vivo, windgrass (Apera spica-venti); conditions: amount of applied herbicide 320 g/ha
# In short: as §2
# barnyard grass [11] = assay: Test Example 5: herbicidal effect by foliage application, plastic box (Table 20, symbol H); assay type: in vivo, barnyard grass (Echinochloa crus-galli); conditions: amount of applied herbicide 320 g/ha; foliage application after 14-day growth; evaluated three weeks after application
# In short: as §4
# chickweed [12] = assay: Test Example 5: herbicidal effect by foliage application, plastic box (Table 20, symbol P); assay type: in vivo, common chickweed (Stellaria media); conditions: amount of applied herbicide 320 g/ha; foliage application after 14-day growth; evaluated three weeks after application
# In short: as §4
# blackgrass [13] = assay: Test Example 4: herbicidal effect by soil treatment (Table 19, symbol J); assay type: in vivo, blackgrass (Alopecurus myosuroides); conditions: amount of applied herbicide 320 g/ha
# In short: as §2
# wild oat [14] = assay: Test Example 4: herbicidal effect by soil treatment (Table 19, symbol I); assay type: in vivo, wild oat (Avena fatua); conditions: amount of applied herbicide 320 g/ha
# In short: as §2
# redroot pigweed [15] = assay: Test Example 4: herbicidal effect by soil treatment (Table 19, symbol N); assay type: in vivo, redroot pigweed (Amaranthus retroflexus); conditions: amount of applied herbicide 320 g/ha
# In short: as §2
# Japanese bulrush [16] = assay: Test Example 1: herbicidal activity, application before weed generation under submerged conditions (Table 16, symbol B); assay type: in vivo, Japanese bulrush (Schoenoplectus juncoides); conditions: amount of applied herbicide 320 g/ha
# In short: as §1
# wild oat [17] = assay: Test Example 5: herbicidal effect by foliage application, plastic box (Table 20, symbol I); assay type: in vivo, wild oat (Avena fatua); conditions: amount of applied herbicide 320 g/ha; foliage application after 14-day growth; evaluated three weeks after application
# In short: as §4
# blackgrass [18] = assay: Test Example 5: herbicidal effect by foliage application, plastic box (Table 20, symbol J); assay type: in vivo, blackgrass (Alopecurus myosuroides); conditions: amount of applied herbicide 320 g/ha; foliage application after 14-day growth; evaluated three weeks after application
# In short: as §4
# barnyard grass [19] = assay: Test Example 3: herbicidal effect by foliage application, Wagner pot (Table 18, symbol H); assay type: in vivo, barnyard grass (Echinochloa crus-galli); conditions: 320 g/ha
# In short: as §3
# redroot pigweed [20] = assay: Test Example 5: herbicidal effect by foliage application, plastic box (Table 20, symbol N); assay type: in vivo, redroot pigweed (Amaranthus retroflexus); conditions: amount of applied herbicide 320 g/ha; foliage application after 14-day growth; evaluated three weeks after application
# In short: as §4
# persian speedwell [21] = assay: Test Example 4: herbicidal effect by soil treatment (Table 19, symbol R); assay type: in vivo, Persian speedwell (Veronica persica); conditions: amount of applied herbicide 320 g/ha
# In short: as §2
# green foxtail [22] = assay: Test Example 5: herbicidal effect by foliage application, plastic box (Table 20, symbol G); assay type: in vivo, green foxtail (Setaria viridis); conditions: amount of applied herbicide 320 g/ha; foliage application after 14-day growth; evaluated three weeks after application
# In short: as §4
# southern crabgrass [23] = assay: Test Example 5: herbicidal effect by foliage application, plastic box (Table 20, symbol F); assay type: in vivo, southern crabgrass (Digitaria ciliaris); conditions: amount of applied herbicide 320 g/ha; foliage application after 14-day growth; evaluated three weeks after application
# In short: as §4
# barnyard grass [24] = assay: Test Example 4: herbicidal effect by soil treatment (Table 19, symbol H); assay type: in vivo, barnyard grass (Echinochloa crus-galli); conditions: amount of applied herbicide 320 g/ha
# In short: as §2
# late watergrass [25] = assay: Test Example 1: herbicidal activity, application before weed generation under submerged conditions (Table 16, symbol A); assay type: in vivo, late watergrass (Echinochloa oryzicola); conditions: amount of applied herbicide 320 g/ha
# In short: as §1
# chickweed [26] = assay: Test Example 4: herbicidal effect by soil treatment (Table 19, symbol P); assay type: in vivo, common chickweed (Stellaria media); conditions: amount of applied herbicide 320 g/ha
# In short: as §2
# windgrass [27] = assay: Test Example 5: herbicidal effect by foliage application, plastic box (Table 20, symbol L); assay type: in vivo, windgrass (Apera spica-venti); conditions: amount of applied herbicide 320 g/ha; foliage application after 14-day growth; evaluated three weeks after application
# In short: as §4
# Italian ryegrass [28] = assay: Test Example 4: herbicidal effect by soil treatment (Table 19, symbol K); assay type: in vivo, Italian ryegrass (Lolium multiflorum); conditions: amount of applied herbicide 320 g/ha
# In short: as §2
# oval-leafed pondweed [29] = assay: Test Example 2: herbicidal activity, application during weed generation under submerged conditions (Table 17, symbol C); assay type: in vivo, oval-leafed pondweed (Monochoria vaginalis); conditions: AAH 320 g/ha; application during weed generation, submerged conditions
# Description: (§5) [Test Example 2] Herbicidal Activity Test by Application during Weed Generation under Submerged Conditions After alluvial soil was placed into 1/10000 are of Wagner pot, water was poured and mixed to form a submerged condition having a water depth of 4 cm. Seeds of late watergrass, Japanese bulrush, and oval-leafed pondweed were sowed in a mixed manner in the aforementioned pot, and the pot was placed in a greenhouse at 25° C. to 30° C. for growth of the plants. When late watergrass, Japanese bulrush, and oval-leafed pondweed were grown to one leaf stage to two leaf stage, the emulsion agent of the compound of the present invention prepared according to Formulation Example 2 was diluted with water so as to achieve a predetermined herbicide amount, and the diluted emulsion agent was applied to the surface of the water. Three weeks after the herbicide application, the effect of the herbicide on each plant was evaluated according to the criteria of Test Example 1.
# Japanese bulrush [30] = assay: Test Example 2: herbicidal activity, application during weed generation under submerged conditions (Table 17, symbol B); assay type: in vivo, Japanese bulrush (Schoenoplectus juncoides); conditions: AAH 320 g/ha; application during weed generation, submerged conditions
# Description: as §5
# late watergrass [31] = assay: Test Example 2: herbicidal activity, application during weed generation under submerged conditions (Table 17, symbol A); assay type: in vivo, late watergrass (Echinochloa oryzicola); conditions: AAH 320 g/ha; application during weed generation, submerged conditions
# Description: as §5
smiles,measurement,setting,value
CCCC(=O)Oc1c(C)nn(C)c(=O)c1-c1c(-c2ccccc2OCC)sc2cc(Cl)c(Cl)cc12 [5-046],"Herbicidal effect, C: oval-leafed pondweed",oval-leafed pondweed [1],0 (Herbicidal rate of 5% or less (almost no effect))
same,"O: lambsquarters, herbicidal effect grade",lambsquarters [2],0 (Herbicidal rate of 5% or less (almost no effect))
same,herbicidal effect on rice flat sedge (E),rice flat sedge,5 (Herbicidal rate of 90% or more (almost completely withered))
same,"F: southern crabgrass, herbicidal effect grade",southern crabgrass [3],0 (Herbicidal rate of 5% or less (almost no effect))
same,"Herbicidal effect by foliage application, M: velvetleaf",velvetleaf [4],5 (Herbicidal rate of 90% or more (almost completely withered))
same,"M: velvetleaf, herbicidal effect grade",velvetleaf [5],0 (Herbicidal rate of 5% or less (almost no effect))
same,"Herbicidal effect by foliage application, O: lambsquarters",lambsquarters [6],3 (Herbicidal rate of 40% or more and less than 70%)
same,"G: green foxtail, herbicidal effect grade",green foxtail [7],0 (Herbicidal rate of 5% or less (almost no effect))
same,"Herbicidal effect by foliage application, K: Italian ryegrass",Italian ryegrass [8],0 (Herbicidal rate of 5% or less (almost no effect))
same,herbicidal effect on Chinese sprangletop (D),Chinese sprangletop,3 (Herbicidal rate of 40% or more and less than 70%)
same,"Herbicidal effect by foliage application, R: persian speedwell",persian speedwell [9],4 (Herbicidal rate of 70% or more and less than 90%)
same,"L: windgrass, herbicidal effect grade",windgrass [10],0 (Herbicidal rate of 5% or less (almost no effect))
same,"Herbicidal effect by foliage application, H: barnyard grass",barnyard grass [11],4 (Herbicidal rate of 70% or more and less than 90%)
same,"Herbicidal effect by foliage application, P: chickweed",chickweed [12],5 (Herbicidal rate of 90% or more (almost completely withered))
same,"J: blackgrass, herbicidal effect grade",blackgrass [13],0 (Herbicidal rate of 5% or less (almost no effect))
same,"I: wild oat, herbicidal effect grade",wild oat [14],0 (Herbicidal rate of 5% or less (almost no effect))
same,"N: redroot pigweed, herbicidal effect grade",redroot pigweed [15],0 (Herbicidal rate of 5% or less (almost no effect))
same,"Herbicidal effect, B: Japanese bulrush",Japanese bulrush [16],3 (Herbicidal rate of 40% or more and less than 70%)
same,"Herbicidal effect by foliage application, I: wild oat",wild oat [17],0 (Herbicidal rate of 5% or less (almost no effect))
same,"Herbicidal effect by foliage application, J: blackgrass",blackgrass [18],0 (Herbicidal rate of 5% or less (almost no effect))
same,herbicidal effect on barnyard grass (H),barnyard grass [19],5 (Herbicidal rate of 90% or more (almost completely withered))
same,"Herbicidal effect by foliage application, N: redroot pigweed",redroot pigweed [20],5 (Herbicidal rate of 90% or more (almost completely withered))
same,"R: persian speedwell, herbicidal effect grade",persian speedwell [21],0 (Herbicidal rate of 5% or less (almost no effect))
same,"Herbicidal effect by foliage application, G: green foxtail",green foxtail [22],3 (Herbicidal rate of 40% or more and less than 70%)
same,"Herbicidal effect by foliage application, F: southern crabgrass",southern crabgrass [23],3 (Herbicidal rate of 40% or more and less than 70%)
same,"H: barnyard grass, herbicidal effect grade",barnyard grass [24],0 (Herbicidal rate of 5% or less (almost no effect))
same,"Herbicidal effect, A: late watergrass",late watergrass [25],0 (Herbicidal rate of 5% or less (almost no effect))
same,"P: chickweed, herbicidal effect grade",chickweed [26],3 (Herbicidal rate of 40% or more and less than 70%)
same,"Herbicidal effect by foliage application, L: windgrass",windgrass [27],0 (Herbicidal rate of 5% or less (almost no effect))
same,"K: Italian ryegrass, herbicidal effect grade",Italian ryegrass [28],0 (Herbicidal rate of 5% or less (almost no effect))
Cc1cc2sc(-c3ccc(OC(F)(F)F)cc3)c(-c3c(O)c(C)nn(C)c3=O)c2cc1C [5-109],"herbicidal effect rating, C: oval-leafed pondweed",oval-leafed pondweed [29],0 (Herbicidal rate of 5% or less (almost no effect))
same,"herbicidal effect rating, B: Japanese bulrush",Japanese bulrush [30],0 (Herbicidal rate of 5% or less (almost no effect))
same,"herbicidal effect rating, A: late watergrass",late watergrass [31],2 (Herbicidal rate of 20% or more and less than 40%)
